The supplement of paper PMC13380429

Columns and labels:
[1] = test system: A549-ACE2 infected with SARS-CoV-2; experiment: cell count relative to DMSO; higher = less toxic; conditions: 24 h
Caco-2 [2] = experiment: cell viability relative to DMSO; higher = less toxic; conditions: 72 h
Calu-3 [3] = experiment: as above; conditions: 72 h
HepG2 [4] = experiment: as above; conditions: 72 h
U2OS [5] = experiment: as above; conditions: 72 h
Vero E6 [6] = experiment: as above; conditions: 72 h
[7] = test system: A549-ACE2 infected with SARS-CoV-2; experiment: SARS-CoV-2 infection rate relative to DMSO; higher = more infection; conditions: 24 h
A549-ACE2 [8] = experiment: drug-induced phospholipidosis relative to tamoxifen; higher = more phospholipidosis
[9] = test system: A549-ACE2 infected with SARS-CoV-2; experiment: morphology score (similarity to uninfected cells); higher = more like uninfected cells; conditions: 24 h
Caco-2 [10] = experiment: relative viability EC50 (midpoint between 100% and the lowest measured viability); higher = less toxic; conditions: 72 h
Calu-3 [11] = experiment: as above; conditions: 72 h
HepG2 [12] = experiment: as above; conditions: 72 h
U2OS [13] = experiment: as above; conditions: 72 h
Vero E6 [14] = experiment: as above; conditions: 72 h
Caco-2 [15] = experiment: drug sensitivity score (DSS) for viability; higher = more toxic; extreme values may be limits of the assay; conditions: 72 h
Calu-3 [16] = experiment: as above; conditions: 72 h
HepG2 [17] = experiment: as above; conditions: 72 h
U2OS [18] = experiment: as above; conditions: 72 h
Vero E6 [19] = experiment: as above; conditions: 72 h
A549-ACE2 [20] = experiment: phospholipidosis EC50; higher = less potent phospholipidosis inducer

Structure (SMILES): COC(=O)[C@]12CCC(C)(C)C[C@H]1[C@H]1C(=O)C=C3[C@@]4(C)C=C(C#N)C(=O)C(C)(C)[C@@H]4CC[C@@]3(C)[C@]1(C)CC2 [Bardoxolone Methyl]
- cell count ([1]; 0.3 µM): 97%
- cell count ([1]; 3 µM): 5%
- cell viability (Caco-2 [2]; 1 nM): 86.4%
- cell viability (Caco-2 [2]; 10 nM): 88.7%
- cell viability (Caco-2 [2]; 100 nM): 85.9%
- cell viability (Caco-2 [2]; 1000 nM): 14.1%
- cell viability (Caco-2 [2]; 10000 nM): -0.2%
- cell viability (Calu-3 [3]; 1 nM): 107%
- cell viability (Calu-3 [3]; 10 nM): 124%
- cell viability (Calu-3 [3]; 100 nM): 117%
- cell viability (Calu-3 [3]; 1000 nM): 12.8%
- cell viability (Calu-3 [3]; 10000 nM): 0%
- cell viability (HepG2 [4]; 1 nM): 94.7%
- cell viability (HepG2 [4]; 10 nM): 107%
- cell viability (HepG2 [4]; 100 nM): 87.4%
- cell viability (HepG2 [4]; 1000 nM): 4%
- cell viability (HepG2 [4]; 10000 nM): -0.2%
- cell viability (U2OS [5]; 1 nM): 101%
- cell viability (U2OS [5]; 10 nM): 96.7%
- cell viability (U2OS [5]; 100 nM): 96.6%
- cell viability (U2OS [5]; 1000 nM): 0.1%
- cell viability (U2OS [5]; 10000 nM): -0.3%
- cell viability (Vero E6 [6]; 1 nM): 98.6%
- cell viability (Vero E6 [6]; 10 nM): 107%
- cell viability (Vero E6 [6]; 100 nM): 92.3%
- cell viability (Vero E6 [6]; 1000 nM): 5.5%
- cell viability (Vero E6 [6]; 10000 nM): -0.3%
- SARS-CoV-2 infection rate ([7]; 0.3 µM): 98%
- SARS-CoV-2 infection rate ([7]; 3 µM): 61%
- drug-induced phospholipidosis (A549-ACE2 [8]; 0.3 µM, 24 h): 0.65%
- drug-induced phospholipidosis (A549-ACE2 [8]; 0.3 µM, 48 h): 2.45%
- drug-induced phospholipidosis (A549-ACE2 [8]; 0.3 µM, 72 h): 7%
- morphology score ([9]; 0.3 µM): 0.09
- morphology score ([9]; 3 µM): -0.03
- relative viability EC50 (Caco-2 [10]): 313 nM
- relative viability EC50 (Calu-3 [11]): 503 nM
- relative viability EC50 (HepG2 [12]): 238 nM
- relative viability EC50 (U2OS [13]): 292 nM
- relative viability EC50 (Vero E6 [14]): 293 nM
- drug sensitivity score (Caco-2 [15]): 17.5
- drug sensitivity score (Calu-3 [16]): 15.4
- drug sensitivity score (HepG2 [17]): 19.4
- drug sensitivity score (U2OS [18]): 18.4
- drug sensitivity score (Vero E6 [19]): 18.3

Structure (SMILES): Cc1cc(CN)cc(C)c1NC(=O)c1ccc(-c2cc(Cl)ccc2Cl)o1
- cell count ([1]; 0.3 µM): 101%
- cell count ([1]; 3 µM): 120%
- cell count ([1]; 10 µM): 120%
- cell count ([1]; 30 µM): 1%
- cell viability (Caco-2 [2]; 1 nM): 105%
- cell viability (Caco-2 [2]; 10 nM): 101%
- cell viability (Caco-2 [2]; 100 nM): 98.1%
- cell viability (Caco-2 [2]; 1000 nM): 102%
- cell viability (Caco-2 [2]; 10000 nM): 79.1%
- cell viability (Calu-3 [3]; 1 nM): 104%
- cell viability (Calu-3 [3]; 10 nM): 101%
- cell viability (Calu-3 [3]; 100 nM): 104%
- cell viability (Calu-3 [3]; 1000 nM): 102%
- cell viability (Calu-3 [3]; 10000 nM): 60.1%
- cell viability (HepG2 [4]; 1 nM): 106%
- cell viability (HepG2 [4]; 10 nM): 103%
- cell viability (HepG2 [4]; 100 nM): 97.8%
- cell viability (HepG2 [4]; 1000 nM): 107%
- cell viability (HepG2 [4]; 10000 nM): 66.7%
- cell viability (U2OS [5]; 1 nM): 98%
- cell viability (U2OS [5]; 10 nM): 102%
- cell viability (U2OS [5]; 100 nM): 98.5%
- cell viability (U2OS [5]; 1000 nM): 101%
- cell viability (U2OS [5]; 10000 nM): 83.1%
- cell viability (Vero E6 [6]; 1 nM): 103%
- cell viability (Vero E6 [6]; 10 nM): 97.5%
- cell viability (Vero E6 [6]; 100 nM): 105%
- cell viability (Vero E6 [6]; 1000 nM): 96.6%
- cell viability (Vero E6 [6]; 10000 nM): 96.8%
- SARS-CoV-2 infection rate ([7]; 0.3 µM): 101%
- SARS-CoV-2 infection rate ([7]; 3 µM): 34%
- SARS-CoV-2 infection rate ([7]; 10 µM): 10%
- SARS-CoV-2 infection rate ([7]; 30 µM): 43%
- phospholipidosis EC50 (A549-ACE2 [20]; 24 h): 2390 nM
- phospholipidosis EC50 (A549-ACE2 [20]; 48 h): 3420 nM
- phospholipidosis EC50 (A549-ACE2 [20]; 72 h): 4240 nM
- drug-induced phospholipidosis (A549-ACE2 [8]; 0.3 µM, 24 h): 2.63%
- drug-induced phospholipidosis (A549-ACE2 [8]; 0.3 µM, 48 h): 3.74%
- drug-induced phospholipidosis (A549-ACE2 [8]; 0.3 µM, 72 h): 1.91%
- drug-induced phospholipidosis (A549-ACE2 [8]; 0.833333 µM, 24 h): 5.94%
- drug-induced phospholipidosis (A549-ACE2 [8]; 0.833333 µM, 48 h): 4.56%
- drug-induced phospholipidosis (A549-ACE2 [8]; 0.833333 µM, 72 h): 1.3%
- drug-induced phospholipidosis (A549-ACE2 [8]; 3.33333 µM, 24 h): 68%
- drug-induced phospholipidosis (A549-ACE2 [8]; 3.33333 µM, 48 h): 48.1%
- drug-induced phospholipidosis (A549-ACE2 [8]; 3.33333 µM, 72 h): 32.6%
- drug-induced phospholipidosis (A549-ACE2 [8]; 6.66667 µM, 24 h): 88.7%
- drug-induced phospholipidosis (A549-ACE2 [8]; 6.66667 µM, 48 h): 81.5%
- drug-induced phospholipidosis (A549-ACE2 [8]; 6.66667 µM, 72 h): 66.3%
- drug-induced phospholipidosis (A549-ACE2 [8]; 10 µM, 24 h): 90.2%
- drug-induced phospholipidosis (A549-ACE2 [8]; 10 µM, 48 h): 90.1%
- drug-induced phospholipidosis (A549-ACE2 [8]; 10 µM, 72 h): 78.5%
- morphology score ([9]; 0.3 µM): 0.02
- morphology score ([9]; 3 µM): 0.84
- morphology score ([9]; 10 µM): 0.68
- morphology score ([9]; 30 µM): -0.13
- relative viability EC50 (Caco-2 [10]): > 10000 nM
- relative viability EC50 (U2OS [13]): > 10000 nM
- relative viability EC50 (Vero E6 [14]): > 10000 nM
- drug sensitivity score (Caco-2 [15]): 0.6
- drug sensitivity score (Calu-3 [16]): 1.8
- drug sensitivity score (HepG2 [17]): 1.2
- drug sensitivity score (U2OS [18]): 0.3
- drug sensitivity score (Vero E6 [19]): 0

Structure (SMILES): COc1cc(/C=C2\CCC/C(=C\c3ccc(O)c(OC)c3)C2=O)ccc1O [cyclovalone]
- cell count ([1]; 0.3 µM): 99%
- cell count ([1]; 3 µM): 97%
- cell count ([1]; 10 µM): 80%
- cell count ([1]; 30 µM): 31%
- cell viability (Caco-2 [2]; 1 nM): 93%
- cell viability (Caco-2 [2]; 10 nM): 102%
- cell viability (Caco-2 [2]; 100 nM): 100%
- cell viability (Caco-2 [2]; 1000 nM): 96.1%
- cell viability (Caco-2 [2]; 10000 nM): 101%
- cell viability (Calu-3 [3]; 1 nM): 93%
- cell viability (Calu-3 [3]; 10 nM): 100%
- cell viability (Calu-3 [3]; 100 nM): 105%
- cell viability (Calu-3 [3]; 1000 nM): 98.9%
- cell viability (Calu-3 [3]; 10000 nM): 59.3%
- cell viability (HepG2 [4]; 1 nM): 88.9%
- cell viability (HepG2 [4]; 10 nM): 95.2%
- cell viability (HepG2 [4]; 100 nM): 99%
- cell viability (HepG2 [4]; 1000 nM): 92.8%
- cell viability (HepG2 [4]; 10000 nM): 90.4%
- cell viability (U2OS [5]; 1 nM): 96.1%
- cell viability (U2OS [5]; 10 nM): 101%
- cell viability (U2OS [5]; 100 nM): 97%
- cell viability (U2OS [5]; 1000 nM): -0.3%
- cell viability (U2OS [5]; 10000 nM): 22.4%
- cell viability (Vero E6 [6]; 1 nM): 103%
- cell viability (Vero E6 [6]; 10 nM): 91.9%
- cell viability (Vero E6 [6]; 100 nM): 99.1%
- cell viability (Vero E6 [6]; 1000 nM): 84.1%
- cell viability (Vero E6 [6]; 10000 nM): 108%
- SARS-CoV-2 infection rate ([7]; 0.3 µM): 96%
- SARS-CoV-2 infection rate ([7]; 3 µM): 103%
- SARS-CoV-2 infection rate ([7]; 10 µM): 98%
- SARS-CoV-2 infection rate ([7]; 30 µM): 21%
- drug-induced phospholipidosis (A549-ACE2 [8]; 0.3 µM, 24 h): 3.68%
- drug-induced phospholipidosis (A549-ACE2 [8]; 0.3 µM, 48 h): 2.15%
- drug-induced phospholipidosis (A549-ACE2 [8]; 0.3 µM, 72 h): 2.61%
- drug-induced phospholipidosis (A549-ACE2 [8]; 0.833333 µM, 24 h): 3.84%
- drug-induced phospholipidosis (A549-ACE2 [8]; 0.833333 µM, 48 h): 1.38%
- drug-induced phospholipidosis (A549-ACE2 [8]; 0.833333 µM, 72 h): -0.476%
- drug-induced phospholipidosis (A549-ACE2 [8]; 3.33333 µM, 24 h): 17.9%
- drug-induced phospholipidosis (A549-ACE2 [8]; 3.33333 µM, 48 h): 12.4%
- drug-induced phospholipidosis (A549-ACE2 [8]; 3.33333 µM, 72 h): 7.23%
- drug-induced phospholipidosis (A549-ACE2 [8]; 6.66667 µM, 24 h): 21.4%
- drug-induced phospholipidosis (A549-ACE2 [8]; 10 µM, 24 h): 23.9%
- drug-induced phospholipidosis (A549-ACE2 [8]; 30 µM, 24 h): 23.4%
- morphology score ([9]; 0.3 µM): 0.08
- morphology score ([9]; 3 µM): 0.06
- morphology score ([9]; 10 µM): 0.05
- morphology score ([9]; 30 µM): 0.46
- relative viability EC50 (Caco-2 [10]): > 10000 nM
- relative viability EC50 (HepG2 [12]): > 10000 nM
- relative viability EC50 (U2OS [13]): 293 nM
- relative viability EC50 (Vero E6 [14]): > 10000 nM
- drug sensitivity score (Caco-2 [15]): 0
- drug sensitivity score (Calu-3 [16]): 2.2
- drug sensitivity score (HepG2 [17]): 0
- drug sensitivity score (U2OS [18]): 18.4
- drug sensitivity score (Vero E6 [19]): 0
